Assays:
[1] = biological target: Cyclin-dependent kinase 2/cyclin E (Homo sapiens, UniProt P24941); assay: Inhibitory concentration against Cyclin dependant kinase 2-cyclinE; format: protein-complex assay
[2] = biological target: Cyclin-dependent kinase 4/cyclin D1 (Homo sapiens, UniProt P11802); assay: Inhibitory concentration against Cyclin dependant kinase 4-cyclinD1; format: protein-complex assay
HCT-116 = assay: Inhibitory concentration against human colon cancer HCT116 cell line; format: functional, cell-based

Sequence of Cyclin-dependent kinase 4/cyclin D1 (P11802 whole entry): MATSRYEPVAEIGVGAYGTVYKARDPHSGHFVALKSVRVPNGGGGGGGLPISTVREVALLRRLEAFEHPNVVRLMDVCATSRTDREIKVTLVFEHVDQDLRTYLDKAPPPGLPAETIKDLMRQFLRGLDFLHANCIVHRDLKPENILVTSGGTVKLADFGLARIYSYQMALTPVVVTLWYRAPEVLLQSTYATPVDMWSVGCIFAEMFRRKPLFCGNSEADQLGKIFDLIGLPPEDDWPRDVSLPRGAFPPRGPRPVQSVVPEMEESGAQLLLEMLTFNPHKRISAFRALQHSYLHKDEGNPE
Sequence of Cyclin-dependent kinase 4/cyclin D1 (P24385 whole entry, further chain): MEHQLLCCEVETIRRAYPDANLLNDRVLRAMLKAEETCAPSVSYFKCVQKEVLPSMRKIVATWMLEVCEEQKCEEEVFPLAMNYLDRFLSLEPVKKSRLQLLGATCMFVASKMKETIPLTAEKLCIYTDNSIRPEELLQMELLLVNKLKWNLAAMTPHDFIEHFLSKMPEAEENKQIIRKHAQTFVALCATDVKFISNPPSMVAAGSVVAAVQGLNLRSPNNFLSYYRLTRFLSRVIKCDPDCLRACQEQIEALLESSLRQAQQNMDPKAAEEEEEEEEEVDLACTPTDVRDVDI

| Structure (SMILES) | IC50 [1] [nM] | IC50 [2] [nM] | IC50 (HCT-116) [nM] |
| --- | --- | --- | --- |
| COc1ccc(-c2[nH]nc3c2C(=O)c2c(NC(=O)NNC(=O)c4cc(OC)cc(OC)c4)cccc2-3)cc1 | 40 | 20 | – |
| COc1ccc(-c2[nH]nc3c2C(=O)c2c(NC(=O)NNC(=O)c4cccnc4)cccc2-3)cc1 | 10 | 9 | 190 |
| COc1ccc(-c2[nH]nc3c2C(=O)c2c(NC(=O)NNC(=O)c4ccc(O)c(N)c4)cccc2-3)cc1 | 20 | 7 | – |
| COc1ccc(-c2[nH]nc3c2C(=O)c2c(NC(=O)NNC(=O)Nc4ccccc4)cccc2-3)cc1 | 10 | – | 280 |
| COc1ccc(-c2[nH]nc3c2C(=O)c2c(NC(=O)NNC(=O)CCc4ccc(O)cc4)cccc2-3)cc1 | 10 | 9 | – |
| COc1ccc(-c2[nH]nc3c2C(=O)c2c(NC(=O)NNC(=O)c4ccc(O)c(O)c4)cccc2-3)cc1 | 10 | 5 | – |
| COc1ccc(-c2[nH]nc3c2C(=O)c2c(NC(=O)NNC(=O)c4cccc([N+](=O)[O-])c4)cccc2-3)cc1 | 20 | 10 | – |
| COc1ccc(-c2[nH]nc3c2C(=O)c2c(NC(=O)NNC(=O)c4cc(Cl)ccc4Cl)cccc2-3)cc1 | 30 | 20 | – |
| COc1ccc(-c2[nH]nc3c2C(=O)c2c(NC(=O)NNC(=O)c4ccc(O)cc4)cccc2-3)cc1 | – | 5 | 1100 |
| COc1ccc(-c2[nH]nc3c2C(=O)c2c(NC(=O)NNC(=O)c4ccc(C)cc4)cccc2-3)cc1 | 20 | – | 140 |
| COc1ccc(-c2[nH]nc3c2C(=O)c2c(NC(=O)NNC(=O)C(C)C)cccc2-3)cc1 | 10 | 6.5 | – |
| COc1ccc(-c2[nH]nc3c2C(=O)c2c(NC(=O)NNC(=O)c4ccc(O)cc4O)cccc2-3)cc1 | 10 | 10 | 250 |
| COC(=O)NNC(=O)Nc1cccc2c1C(=O)c1c-2n[nH]c1-c1ccc(OC)cc1 | 10 | 8 | 50 |
| COc1ccc(-c2[nH]nc3c2C(=O)c2c(NC(=O)NNC(=O)c4ccccc4)cccc2-3)cc1 | 10 | 7 | 30 |
| COc1ccc(-c2[nH]nc3c2C(=O)c2c(NC(=O)NNC(=O)c4ccc(N)cc4)cccc2-3)cc1 | 10 | 10 | 70 |

Further compounds by falling IC50 [1], results first:

| IC50 [1] [nM] | IC50 [2] [nM] | IC50 (HCT-116) [nM] | Structure (SMILES) |
| --- | --- | --- | --- |
| 240 | 400 | – | COc1ccc(-c2[nH]nc3c2C(=O)c2c(NC=O)cccc2-3)cc1 |
| 130 | – | – | COc1ccc(-c2[nH]nc3c2C(=O)c2c(NC(=O)NNC(N)=O)cccc2-3)cc1 |
| 90 | 240 | 1200 | COc1ccc(-c2[nH]nc3c2C(=O)c2c(NC(=O)NNC(=O)C(N)=O)cccc2-3)cc1 |
| 50 | – | – | COc1ccc(-c2[nH]nc3c2C(=O)c2c(NC(=O)NNC(=O)c4cccc5ccccc45)cccc2-3)cc1 |
| 30 | 50 | – | COc1ccc(-c2[nH]nc3c2C(=O)c2c(NC(=O)NNC(C)=O)cccc2-3)cc1 |
| 30 | 10 | 120 | COc1ccc(-c2[nH]nc3c2C(=O)c2c(NC(=O)NNC(=O)c4ccc5ccccc5c4)cccc2-3)cc1 |
| 30 | 20 | – | COc1ccc(-c2[nH]nc3c2C(=O)c2c(NC(=O)NNC(=O)Cc4ccccc4)cccc2-3)cc1 |
| 30 | 10 | – | COc1ccc(-c2[nH]nc3c2C(=O)c2c(NC(=O)NNC(=O)c4cc(N)cc(N)c4)cccc2-3)cc1 |
| 20 | 7 | – | COc1ccc(-c2[nH]nc3c2C(=O)c2c(NC(=O)NNC(=O)c4cc(OC)c(OC)c(OC)c4)cccc2-3)cc1 |
| 10 | 7 | 80 | COc1ccc(-c2[nH]nc3c2C(=O)c2c(NC(=O)NNC(=O)c4cccc(N)c4)cccc2-3)cc1 |
| 10 | 10 | – | COc1ccc(C(=O)NNC(=O)Nc2cccc3c2C(=O)c2c(-c4ccc(OC)cc4)n[nH]c2-3)cc1 |
| 10 | 9 | 190 | COc1ccc(-c2[nH]nc3c2C(=O)c2c(NC(=O)NNC(=O)c4ccncc4)cccc2-3)cc1 |
| 10 | – | 40 | COc1ccc(-c2[nH]nc3c2C(=O)c2c(NC(=O)NNC(=O)c4ccccc4OC)cccc2-3)cc1 |
| 10 | 7 | – | COc1ccc(-c2[nH]nc3c2C(=O)c2c(NC(=O)NNC(=O)c4cccc(C)c4)cccc2-3)cc1 |
| 9 | 60 | 80 | COc1ccc(-c2[nH]nc3c2C(=O)c2c(NC(=O)NNC(=O)c4ccccc4O)cccc2-3)cc1 |

From ChEMBL document CHEMBL1138012, “Parallel synthesis of acylsemicarbazide libraries: preparation of potent cyclin dependent kinase (cdk) inhibitors” (Bioorg Med Chem Lett, 2004)
